Counter-ions that a name gives are not always drawn. ± gives the standard deviation of the averaged measurements.
Tested on: HepaRG
Experiment: LDH release cytotoxicity, % of total lysis control; higher = more cytotoxic
Conditions: 48 h
Outline: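 Single-lot HepaRG cells on collagen I-coated 96-well plates were exposed for 48 h in duplicate, in serum-free induction medium with 0.5% DMSO, to eight-point half-log series (test chemicals top 100 µM). Total lysis wells received 0.1% Triton X, and LDH leakage into 50 µL spent medium was read as resorufin fluorescence (CytoTox-ONE, Tecan Safire). Percent cytotoxicity was normalized to on-plate vehicle and total lysis controls and averaged over the duplicates.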

SMILES | LDH release cytotoxicity (0.03162 µM) [%] | LDH release cytotoxicity (0.1 µM) [%] | LDH release cytotoxicity (0.3162278 µM) [%] | LDH release cytotoxicity (1 µM) [%] | LDH release cytotoxicity (3.16228 µM) [%] | LDH release cytotoxicity (10 µM) [%] | LDH release cytotoxicity (31.6228 µM) [%] | LDH release cytotoxicity (100 µM) [%] | LDH release cytotoxicity (0.031623 µM) [%] | LDH release cytotoxicity (0.316228 µM) [%]
CCc1cc(SCc2sc(-c3ccc(C(F)(F)F)cc3)nc2CN2CCN(c3ccc(OC)cc3)CC2)ccc1OCC(=O)O | -1.41 ± 0.0016 | -1.04 ± 0.17 | -0.879 ± 1.1 | -1.49 ± 0.045 | -2.29 ± 0.43 | 21 ± 2.3 | 70.2 ± 1.2 | 84 ± 2.7 | – | –
CC(C)(C)OOC(C)(C)CCC(C)(C)OOC(C)(C)C [2,5-Dimethyl-2,5-di-(tert-butylperoxy)hexane] | -1.07 ± 0.59 | -0.939 ± 1 | -0.841 ± 0.2 | -0.347 ± 0.56 | -0.34 ± 0.39 | -0.223 ± 0.53 | 1.22 ± 1.1 | 2.2 ± 1.6 | – | –
Nc1nc(N)nc(NC2CC2)n1 [Cyromazine] | -1.4 ± 0.21 | -0.914 ± 1.1 | -0.958 ± 0.84 | -1.75 ± 0.58 | -1.74 ± 0.52 | -1.14 ± 0.16 | -1.52 ± 0.36 | 0.201 ± 0.23 | – | –
OCCN(CCO)CCO [Triethanolamine] | -0.32 ± 0.27 | -0.911 ± 0.6 | -1.61 ± 0.09 | -1.26 ± 0.23 | -1.19 ± 1.4 | -0.416 ± 1.2 | -0.346 ± 0.72 | 1.04 ± 0.38 | – | –
CCCCCCCC(=O)O [Octanoic acid] | -1.17 ± 0.13 | -1.02 ± 0.23 | -0.609 ± 0.43 | -0.537 ± 0.81 | -0.391 ± 0.73 | -0.933 ± 1.1 | -0.626 ± 0.1 | 0.799 ± 0.12 | – | –
C=CCc1ccc2c(c1)OCO2 [Safrole] | -1.32 ± 2.9 | -2.757 ± 0.0064 | -3.53 ± 1 | -4.07 ± 0.0064 | -3.36 ± 0.43 | -2.27 ± 1.1 | -1.93 ± 2.5 | 1.79 ± 3.3 | – | –
COc1ccc(-c2ccccc2)cc1NNC(=O)OC(C)C [Bifenazate] | -1.53 ± 0.49 | -1.35 ± 0.97 | -1.03 ± 0.83 | -1.59 ± 0.54 | -1.11 ± 0.95 | -0.547 ± 1.4 | -0.468 ± 0.53 | 1.1 ± 1.1 | – | –
CC(C)N(C(=O)COc1nnc(C(F)(F)F)s1)c1ccc(F)cc1 [Flufenacet] | -2.32 ± 1.1 | -2.03 ± 0.074 | -2.3 ± 0.27 | -2.01 ± 0.82 | -2.29 ± 0.33 | -1.38 ± 0.041 | 0.458 ± 1.1 | 1.71 ± 0.18 | – | –
CCOC(=O)CCC(=O)OCC [Diethyl butanedioate] | -2.6 ± 0.22 | -1.75 ± 0.66 | -2.02 ± 0.1 | -1.99 ± 0.076 | -0.438 ± 0.84 | -0.384 ± 0.28 | 16 ± 3.3 | 83.2 ± 4.8 | – | –
O=[N+]([O-])c1c(Cl)c(Cl)c(Cl)c(Cl)c1Cl [Pentachloronitrobenzene] | -1.26 ± 0.72 | -1.49 ± 0.11 | -1.32 ± 0.71 | -1.55 ± 1.1 | -0.822 ± 1.5 | 0.118 ± 0.74 | 0.34 ± 0.41 | 2.25 ± 1.1 | – | –
Nc1ccc(Cc2ccc(N)cc2)cc1 [4,4'-Diaminobiphenyl methane] | -0.659 ± 0.14 | -2.27 ± 0.61 | -2.24 ± 0.039 | -2.78 ± 0.38 | -2.52 ± 0.39 | -2.46 ± 0.15 | -1.8 ± 0.081 | 0.228 ± 0.61 | – | –
[O-][n+]1ccccc1S [Sodium (2-pyridylthio)-N-oxide] | -1.41 ± 0.6 | -0.73 ± 0.66 | -1.67 ± 0.53 | -0.357 ± 1.3 | -1.51 ± 0.23 | -1.01 ± 0.22 | -0.585 ± 0.072 | 1.58 ± 0.14 | – | –
O=C(c1ccc(O)cc1O)c1ccc(O)cc1O [2,2',4,4'-Tetrahydroxybenzophenone] | – | -1.13 ± 1.1 | – | -1.52 ± 0.89 | -2.25 ± 0.71 | -1.76 ± 0.33 | 1.26 ± 0.54 | 35.3 ± 1.2 | -0.783 ± 0.28 | -1.37 ± 0.79
c1ccc2c(c1)-c1cccc3c1c-2cc1ccccc13 [Benzo(b)fluoranthene] | -1.73 ± 0.79 | -2.8 ± 0.051 | -1.72 ± 0.55 | -2.85 ± 1 | -1.02 ± 0.32 | 1.06 ± 1.1 | 5.33 ± 2.5 | 5.52 ± 2.2 | – | –
CC(N)=O [Acetamide] | -1.42 ± 0.94 | -0.0289 ± 1.8 | -1.35 ± 0.33 | -2.5 ± 0.18 | -2.19 ± 1.4 | -0.925 ± 0.15 | -0.0914 ± 0.22 | 1.3 ± 0.62 | – | –
Cc1oc(-c2ccccc2)nc1CCOc1cccc2c1ccn2CCC(=O)O | -0.496 ± 0.49 | -1.56 ± 0.14 | -1.37 ± 1.4 | -1.71 ± 0.068 | -1.03 ± 0.61 | -0.899 ± 0.13 | -0.577 ± 0.44 | 45.3 ± 5.2 | – | –
OCCCl [2-Chloroethanol] | -1.15 ± 0.41 | -1.03 ± 0.86 | -1.59 ± 0.33 | -1.39 ± 0.77 | -1.15 ± 0.39 | -0.492 ± 0.48 | -0.514 ± 0.24 | 4.05 ± 0.92 | – | –
COc1cc(-c2ccc(N)c(OC)c2)ccc1N [3,3'-Dimethoxybenzidine dihydrochloride] | -1.44 ± 0.28 | -1.17 ± 0.44 | -1.43 ± 0.26 | -2.08 ± 0.059 | -1.15 ± 0.23 | -0.317 ± 0.23 | 0.438 ± 1 | 3.4 ± 0.6 | – | –
CC(C)N(C(=O)SCC(Cl)=C(Cl)Cl)C(C)C [Tri-allate] | -0.887 ± 0.62 | -0.771 ± 0.47 | -0.223 ± 0.71 | -0.601 ± 0.42 | -0.0707 ± 0.93 | -0.765 ± 0.52 | 1.13 ± 1.9 | 1.48 ± 0.1 | – | –
